Experimental data as given in patent US8952034B2, “Fused heterocyclic compounds as ion channel modulators” (Gilead Sciences, Inc., priority 2009, dated 2015).

Biological target: wild-type human cardiac sodium channel, hNav1.5 (Homo sapiens, UniProt Q14524)
Experiment: Late INa screening assay (automated whole cell patch clamp, PatchXpress)
Type: cell-based
Conditions: compound at 1 μM; HEK293 cells expressing hNav1.5; late INa generated with 10 μM Tefluthrin (or 50 nM ATX II); read-out: LateINa_1 uM (percent block of late INa)
In short: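 Late sodium current through wild-type human hNav1.5 stably expressed in HEK293 cells (no beta subunits) was recorded by automated whole-cell patch clamp on a PatchXpress 7000A at 24-27° C. Late INa was induced with 10 μM Tefluthrin or 50 nM ATX II. Cells were stepped from −120 mV to −20 mV for 250 ms at 0.1 Hz, and percent block was normalized to current in Na-free extracellular solution.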

wild-type human cardiac sodium channel, hNav1.5, sequence (Q14524 whole entry): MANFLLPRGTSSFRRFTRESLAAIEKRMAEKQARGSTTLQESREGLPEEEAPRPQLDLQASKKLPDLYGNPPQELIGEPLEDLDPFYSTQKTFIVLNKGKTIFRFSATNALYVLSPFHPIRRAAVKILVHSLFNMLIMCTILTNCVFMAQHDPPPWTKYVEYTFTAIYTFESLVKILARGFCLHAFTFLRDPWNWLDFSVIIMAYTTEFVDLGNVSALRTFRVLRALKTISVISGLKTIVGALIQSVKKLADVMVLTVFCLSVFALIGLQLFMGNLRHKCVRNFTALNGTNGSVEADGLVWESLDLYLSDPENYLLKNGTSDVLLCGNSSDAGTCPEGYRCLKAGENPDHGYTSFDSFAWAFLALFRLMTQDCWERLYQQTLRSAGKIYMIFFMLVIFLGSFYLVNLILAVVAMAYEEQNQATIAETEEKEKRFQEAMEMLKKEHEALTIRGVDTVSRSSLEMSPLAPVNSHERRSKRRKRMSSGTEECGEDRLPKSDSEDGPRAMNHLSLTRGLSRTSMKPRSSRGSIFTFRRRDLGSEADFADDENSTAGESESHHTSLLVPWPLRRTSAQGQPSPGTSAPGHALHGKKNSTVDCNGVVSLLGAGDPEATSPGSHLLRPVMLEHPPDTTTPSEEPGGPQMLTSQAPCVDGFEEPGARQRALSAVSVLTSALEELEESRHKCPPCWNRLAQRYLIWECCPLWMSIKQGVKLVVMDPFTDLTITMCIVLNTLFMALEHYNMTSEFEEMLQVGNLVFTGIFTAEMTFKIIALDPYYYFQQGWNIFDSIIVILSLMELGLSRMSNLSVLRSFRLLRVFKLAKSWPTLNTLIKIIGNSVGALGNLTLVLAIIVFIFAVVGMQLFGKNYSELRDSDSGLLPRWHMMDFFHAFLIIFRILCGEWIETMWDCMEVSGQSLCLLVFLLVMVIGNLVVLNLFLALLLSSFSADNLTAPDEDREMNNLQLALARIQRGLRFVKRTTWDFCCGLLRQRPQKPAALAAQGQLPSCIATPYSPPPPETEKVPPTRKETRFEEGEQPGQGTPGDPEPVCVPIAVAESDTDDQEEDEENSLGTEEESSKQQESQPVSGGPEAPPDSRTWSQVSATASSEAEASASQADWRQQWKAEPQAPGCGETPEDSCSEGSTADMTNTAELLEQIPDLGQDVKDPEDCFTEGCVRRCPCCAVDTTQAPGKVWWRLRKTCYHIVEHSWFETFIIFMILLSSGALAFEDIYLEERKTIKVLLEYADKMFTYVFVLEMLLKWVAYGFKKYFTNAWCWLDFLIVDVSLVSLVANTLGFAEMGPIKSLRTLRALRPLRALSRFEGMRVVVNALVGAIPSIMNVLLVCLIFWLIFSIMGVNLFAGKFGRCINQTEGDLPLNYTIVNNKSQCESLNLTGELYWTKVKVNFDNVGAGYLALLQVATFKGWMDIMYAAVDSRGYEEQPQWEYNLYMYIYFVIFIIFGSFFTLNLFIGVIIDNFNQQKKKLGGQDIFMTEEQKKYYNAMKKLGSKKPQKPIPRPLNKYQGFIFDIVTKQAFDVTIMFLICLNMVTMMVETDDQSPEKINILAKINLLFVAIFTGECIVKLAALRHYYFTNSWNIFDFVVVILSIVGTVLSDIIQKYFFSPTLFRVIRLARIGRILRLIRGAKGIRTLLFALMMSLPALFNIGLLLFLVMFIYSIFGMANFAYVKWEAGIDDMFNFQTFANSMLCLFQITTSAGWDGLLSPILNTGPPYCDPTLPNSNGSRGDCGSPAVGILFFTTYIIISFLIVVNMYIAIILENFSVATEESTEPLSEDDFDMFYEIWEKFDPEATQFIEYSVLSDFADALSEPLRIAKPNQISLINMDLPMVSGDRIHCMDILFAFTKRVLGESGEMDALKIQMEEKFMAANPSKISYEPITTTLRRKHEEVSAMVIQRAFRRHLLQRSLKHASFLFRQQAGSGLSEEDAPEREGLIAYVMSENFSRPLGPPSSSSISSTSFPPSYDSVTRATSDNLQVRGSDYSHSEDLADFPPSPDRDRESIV

Compound | inhibition at 1 µM [%]
COCCOC(F)(F)c1nnc2ccc(-c3ccc(OC(F)(F)F)cc3)cn12 [BHN-141, 3-[difluoro(2-methoxyethoxy)methyl]-6-[4-(trifluoromethoxy)phenyl][1,2,4]triazolo[4,3-a]pyridine] | 32.5
CC(O)COC(F)(F)c1nnc2ccc(-c3ccc(OC(F)(F)F)cc3)cn12 (centres unmarked) [BHN-158, 1-(difluoro{6-[4-(trifluoromethoxy)phenyl][1,2,4]triazolo[4,3-a]pyridin-3-yl}methoxy)propan-2-ol] | 32.9
FC(F)(F)Oc1ccc(-c2ccc3nnc(C(F)(F)OCc4noc(-c5ccccc5)n4)n3c2)cc1 [BHN-323, 3-{difluoro[(5-phenyl-1,2,4-oxadiazol-3-yl)methoxy]methyl}-6-[4-(trifluoromethoxy)phenyl][1,2,4]triazolo[4,3-a]pyridine] | 73
Cn1nc(COC(F)(F)c2nnc3ccc(-c4ccc(OC(F)(F)F)cc4)cn23)cc1-c1ccccc1 [BHN-224, 3-{difluoro[(1-methyl-5-phenyl-1H-pyrazol-3-yl)methoxy]methyl}-6-[4-(trifluoromethoxy)phenyl][1,2,4]triazolo[4,3-a]pyridine] | 24.2
FC(F)(F)Oc1ccc(-c2ccc3nnc(C(F)(F)OCc4coc(-c5ccc(C(F)(F)F)cc5)n4)n3c2)cc1 [BHN-288, 3-[difluoro({2-[4-(trifluoromethyl)phenyl]-1,3-oxazol-4-yl}methoxy)methyl]-6-[4-(trifluoromethoxy)phenyl][1,2,4]triazolo[4,3-a]pyridine] | 39.2
FC(F)(F)c1nnc2ccc(-c3ccc(Oc4ccc(Cl)cc4)cc3)nn12 [BHN-236, 6-[4-(4-chlorophenoxy)phenyl]-3-(trifluoromethyl)[1,2,4]triazolo[4,3-b]pyridazine] | 40
FC(F)(F)c1ccc(-c2ccc3nnc(C(F)(F)OCC4CC4)n3c2)cn1 [BHN-275, 3-[(cyclopropylmethoxy)(difluoro)methyl]-6-[6-(trifluoromethyl)pyridin-3-yl][1,2,4]triazolo[4,3-a]pyridine] | 28.6
Cc1noc(-c2cc(-c3ccc4nnc(C(F)(F)F)n4c3)ccc2OC(F)(F)F)n1 [BHN-182, 6-[3-(3-methyl-1,2,4-oxadiazol-5-yl)-4-(trifluoromethoxy)phenyl]-3-(trifluoromethyl)[1,2,4]triazolo[4,3-a]pyridine] | 18.9
Cc1nc(COC(F)(F)c2nnc3ccc(-c4ccc(OC(F)(F)F)cc4)cn23)c(C)o1 [BHN-228, 3-{[(2,5-dimethyl-1,3-oxazol-4-yl)methoxy](difluoro)methyl}-6-[4-(trifluoromethoxy)phenyl][1,2,4]triazolo[4,3-a]pyridine] | 73
FC(F)(F)Oc1ccc(-c2ccc3nnc(COCC4CC4)n3c2)cc1 [BHN-128, 3-[(cyclopropylmethoxy)methyl]-6-[4-(trifluoromethoxy)phenyl][1,2,4]triazolo[4,3-a]pyridine] | 65.6
OC(C1CC1)C(F)(F)c1nnc2ccc(-c3ccc(OC(F)(F)F)cc3)cn12 (centres unmarked) [BHN-166, 1-cyclopropyl-2,2-difluoro-2-{6-[4-(trifluoromethoxy)phenyl][1,2,4]triazolo[4,3-a]pyridin-3-yl}ethanol] | 29.5
Cc1cc(COC(F)(F)c2nnc3ccc(-c4ccc(OC(F)(F)F)cc4)cn23)c2ccccc2n1 [BHN-289, 4-[(difluoro{6-[4-(trifluoromethoxy)phenyl][1,2,4]triazolo[4,3-a]pyridin-3-yl}methoxy)methyl]-2-methylquinoline] | 47.9
FC(F)(F)c1nnc2ccc(C#Cc3ccccc3)cn12 [BHN-163, 6-(phenylethynyl)-3-(trifluoromethyl)[1,2,4]triazolo[4,3-a]pyridine] | 57.3
FC(F)(F)Oc1ccc(-c2ccc3nnc(C(F)(F)COCc4cc(-c5ccc(Cl)cc5)no4)n3c2)cc1 [BHN-235, 3-(2-{[3-(4-chlorophenyl)-1,2-oxazol-5-yl]methoxy}-1,1-difluoroethyl)-6-[4-(trifluoromethoxy)phenyl][1,2,4]triazolo[4,3-a]pyridine] | 41.5
FC(F)(F)Oc1ccc(-c2ccc3nnc(C(F)(F)OCc4ccccc4-c4ccc(C5CC5)nc4)n3c2)cc1 [BHN-325, 3-[{[2-(6-cyclopropylpyridin-3-yl)benzyl]oxy}(difluoro)methyl]-6-[4-(trifluoromethoxy)phenyl][1,2,4]triazolo[4,3-a]pyridine] | 68.3
FC(F)(F)c1nnc2ccc(-c3nnc(C4CC4)s3)cn12 [BHN-96, 6-(5-cyclopropyl-1,3,4-thiadiazol-2-yl)-3-(trifluoromethyl)[1,2,4]triazolo[4,3-a]pyridine] | 20.3
N#Cc1ccc(C(F)(F)Oc2ccc(-c3ccc4nnc(C(F)(F)F)n4c3)cc2)cc1 [BHN-280, 4-(difluoro{4-[3-(trifluoromethyl)[1,2,4]triazolo[4,3-a]pyridin-6-yl]phenoxy}methyl)benzonitrile] | 63.7
FC(F)(F)Oc1ccc(-c2ccc3nnc(C(F)(F)OCc4nc(-c5ccccc5)oc4C(F)(F)F)n3c2)cc1 [BHN-313, 3-(difluoro{[2-phenyl-5-(trifluoromethyl)-1,3-oxazol-4-yl]methoxy}methyl)-6-[4-(trifluoromethoxy)phenyl][1,2,4]triazolo[4,3-a]pyridine] | 50
OC(COCC(F)(F)c1nnc2ccc(-c3ccc(OC(F)(F)F)cc3)cn12)COc1ccccc1Cl (centres unmarked) [BHN-267, 1-(2-chlorophenoxy)-3-(2,2-difluoro-2-{6-[4-(trifluoromethoxy)phenyl][1,2,4]triazolo[4,3-a]pyridin-3-yl}ethoxy)propan-2-ol] | 26.5
Cc1nc(COC(F)(F)c2nnc3ccc(-c4ccc(OC(F)(F)F)cc4)cn23)no1 [BHN-147, 3-{difluoro[(5-methyl-1,2,4-oxadiazol-3-yl)methoxy]methyl}-6-[4-(trifluoromethoxy)phenyl][1,2,4]triazolo[4,3-a]pyridine] | 29.1
COCC(F)(F)c1nnc2ccc(-c3ccc(Oc4ccccc4)cc3)cn12 [BHN-136, 3-(1,1-difluoro-2-methoxyethyl)-6-(4-phenoxyphenyl)[1,2,4]triazolo[4,3-a]pyridine] | 45
FC(F)(F)Oc1ccc(-c2ccc3nnc(C(F)(F)OCc4cc(C(F)(F)F)nc5ccccc45)n3c2)cc1 [BHN-290, 4-[(difluoro{6-[4-(trifluoromethoxy)phenyl][1,2,4]triazolo[4,3-a]pyridin-3-yl}methoxy)methyl]-2-(trifluoromethyl)quinoline] | 34.6
Fc1ccc(Oc2ccc(-c3ccc4nnc(C(F)(F)F)n4c3)cc2)cc1 [BHN-64, 6-[4-(4-fluorophenoxy)phenyl]-3-(trifluoromethyl)[1,2,4]triazolo[4,3-a]pyridine] | 38.2
COc1ccccc1SCC(C)COC(F)(F)c1nnc2ccc(-c3ccc(OC(F)(F)F)cc3)cn12 (centres unmarked) [BHN-262, 3-(difluoro{3-[(2-methoxyphenyl)sulfanyl]-2-methylpropoxy}methyl)-6-[4-(trifluoromethoxy)phenyl][1,2,4]triazolo[4,3-a]pyridine] | 47.8
Cc1cc(OC(F)(F)F)ccc1-c1ccc2nnc(C(F)(F)F)n2n1 [BHN-26, 6-[2-methyl-4-(trifluoromethoxy)phenyl]-3-(trifluoromethyl)[1,2,4]triazolo[4,3-b]pyridazine] | 64.4
Cc1nccn1-c1ccccc1COC(F)(F)c1nnc2ccc(-c3ccc(OC(F)(F)F)cc3)cn12 [BHN-312, 3-(difluoro{[2-(2-methyl-1H-imidazol-1-yl)benzyl]oxy}methyl)-6-[4-(trifluoromethoxy)phenyl][1,2,4]triazolo[4,3-a]pyridine] | 51.4
C/C(=C\C#N)c1ccc(-c2ccc3nnc(C(F)(F)F)n3c2)cc1 [BHN-169, (2E)-3-{4-[3-(trifluoromethyl)[1,2,4]triazolo[4,3-a]pyridin-6-yl]phenyl}but-2-enenitrile] | 30.5
FC(F)(F)c1nnc2ccc(-c3ccc(C4CC4)cc3)cn12 [BHN-90, 6-(4-cyclopropylphenyl)-3-(trifluoromethyl)[1,2,4]triazolo[4,3-a]pyridine] | 63.4
COc1cc(-c2ccc3nnc(C(F)(F)F)n3c2)cc(OC)c1OC [BHN-107, 3-(trifluoromethyl)-6-(3,4,5-trimethoxyphenyl)[1,2,4]triazolo[4,3-a]pyridine] | 16.5

Same assay, conditions: compound at 10 μM; HEK293 cells expressing hNav1.5; late INa generated with 10 μM Tefluthrin (or 50 nM ATX II); read-out: LateINa_10 uM (percent block of late INa)

Compound | inhibition at 10 µM [%]
Cc1c(-c2ccc(C(F)(F)F)cc2)ccc2ncnn12 [BHN-350, 5-methyl-6-[4-(trifluoromethyl)phenyl][1,2,4]triazolo[1,5-a]pyridine] | 44.5
Cc1nnc2ccc(-c3ccc(Oc4ccccc4)cc3)cn12 [BHN-333, 3-methyl-6-(4-phenoxyphenyl)[1,2,4]triazolo[4,3-a]pyridine] | 61.6
FC(F)(F)c1nnc2ccc(-c3cnc(C4CC4)nc3)cn12 [BHN-89, 6-(2-cyclopropylpyrimidin-5-yl)-3-(trifluoromethyl)[1,2,4]triazolo[4,3-a]pyridine] | 20.5
CC(=O)Nc1cc(-c2ccc(OC(F)(F)F)cc2C)cn2c(C)nnc12 [BHN-76, N-{3-methyl-6-[2-methyl-4-(trifluoromethoxy)phenyl][1,2,4]triazolo[4,3-a]pyridin-8-yl}acetamide] | 31.9
FC(F)(F)Oc1ccc(-c2ccc3nncn3n2)cc1 [BHN-25, 6-[4-(trifluoromethoxy)phenyl][1,2,4]triazolo[4,3-b]pyridazine] | 39
Cc1nnc2c(N)cc(-c3ccc(OC(F)(F)F)cc3)cn12 [BHN-69, 3-methyl-6-[4-(trifluoromethoxy)phenyl][1,2,4]triazolo[4,3-a]pyridin-8-amine] | 32.1
Fc1ccc(Oc2ccc(-c3ccc4nnc(C(F)(F)F)n4c3)cc2)cc1 [BHN-64, 6-[4-(4-fluorophenoxy)phenyl]-3-(trifluoromethyl)[1,2,4]triazolo[4,3-a]pyridine] | 69.6
Cc1cc(OC(F)(F)F)ccc1-c1ccc2nnc(C(F)(F)F)n2n1 [BHN-26, 6-[2-methyl-4-(trifluoromethoxy)phenyl]-3-(trifluoromethyl)[1,2,4]triazolo[4,3-b]pyridazine] | 75.3
FC(F)(F)c1nnc2ccc(-c3ccc(C4CC4)cc3)cn12 [BHN-90, 6-(4-cyclopropylphenyl)-3-(trifluoromethyl)[1,2,4]triazolo[4,3-a]pyridine] | 74.9
